Measured values as given in patent US4447440A, “Sulphenamides-containing lipoxygenase inhibiting agents and their use in pharmaceutical compositions” (Bayer Aktiengesellschaft, priority 1981, dated 1984).

Test system: lipoxygenase / cyclooxygenase
Experiment: not given
Settings: prior art; cited from earlier work
In the case of CC(Cc1ccc(O)c(O)c1)C(C)Cc1ccc(O)c(O)c1 (centres unmarked) [nordihydroguaiaretic acid], the “activity of known inhibitors of lipoxygenase, in words” value is given as “either simultaneously active as inhibitors of cyclooxygenase, or only active at very high concentrations”. For CCCCCC#CCC#CCC#CCC#CCCCC(=O)O [5,8,11,14-eicosatetrainoic acid], the “activity of known inhibitors of lipoxygenase, in words” value is listed as “either simultaneously active as inhibitors of cyclooxygenase, or only active at very high concentrations”. For O=C1CCN(c2ccccc2)N1 [phenidone], the “activity of known inhibitors of lipoxygenase, in words” value is listed as “either simultaneously active as inhibitors of cyclooxygenase, or only active at very high concentrations”.

Target: T1, platelet lipoxygenase (Homo sapiens, UniProt P18054)
T1 construct: metabolism of radioactively labelled arachidonic acid by washed human platelets; endogenous in cells; host or cells: washed human platelets
T1 sequence (P18054 1-663): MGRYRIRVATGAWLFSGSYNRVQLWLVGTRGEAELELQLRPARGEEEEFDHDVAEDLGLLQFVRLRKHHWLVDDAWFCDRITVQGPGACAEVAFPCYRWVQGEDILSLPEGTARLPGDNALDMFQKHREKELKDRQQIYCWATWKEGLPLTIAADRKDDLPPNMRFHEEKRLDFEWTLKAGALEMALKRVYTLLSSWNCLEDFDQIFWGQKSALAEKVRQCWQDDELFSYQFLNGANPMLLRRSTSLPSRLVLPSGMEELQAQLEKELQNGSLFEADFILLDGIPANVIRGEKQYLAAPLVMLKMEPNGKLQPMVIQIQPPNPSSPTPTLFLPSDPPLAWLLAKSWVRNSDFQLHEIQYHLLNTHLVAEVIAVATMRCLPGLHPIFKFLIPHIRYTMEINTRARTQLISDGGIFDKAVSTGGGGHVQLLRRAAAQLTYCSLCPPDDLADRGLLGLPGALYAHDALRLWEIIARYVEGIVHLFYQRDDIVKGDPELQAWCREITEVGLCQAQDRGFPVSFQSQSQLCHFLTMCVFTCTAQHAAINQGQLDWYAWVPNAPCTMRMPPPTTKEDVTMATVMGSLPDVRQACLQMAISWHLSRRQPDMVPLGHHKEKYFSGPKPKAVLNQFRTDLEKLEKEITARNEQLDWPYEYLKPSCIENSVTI
Experiment: Inhibition of the platelet lipoxygenase (synthesis of HETE), metabolism of radioactively labelled arachidonic acid by washed human platelets
Format: cell-based
Settings: in vitro
Description: In this test method, the metabolism of radioactively labelled arachidonic acid by washed human platelets is investigated. In this in vitro test, the radioactively labelled metabolites are extracted from the reaction mixture and separated by thin layer chromatography. The autoradiogram is evaluated on the thin layer scanner. Under these test conditions, the labelled metabolites are separated from the unreacted arachidonic acid and can subsequently be quantitatively evaluated. The distribution of the radioactivity in the cyclooxygenase products, formed during metabolism, thomboxane B2 (TXB2) and 12-hydroxy-5,8,10-heptadecatrienic acid (HHT) and the lipoxygenase product 12-hydroxy-5,8,11,14-eicosatetraenoic acid (HETE) as influenced by the inhibitors, gives a measure of the inhibition of the enzymes.
The inhibition of lipoxygenase by the sulphenamides which can be used according to the invention can be measured by the inhibition of the synthesis of HETE. […] Inhibition of the platelet lipoxygenase (synthesis of HETE)
In the case of O=C1c2c(Cl)c(Cl)c(Cl)c(Cl)c2C(=O)N1Sc1ccccc1 [Example 42], the “Minimum effective inhibitory concentration (at least 50% inhibition)” value was 3e-06 g/mL. With O=C1c2ccc([N+](=O)[O-])cc2C(=O)N1Sc1ccc(Cl)cc1 [Example 40] the “Minimum effective inhibitory concentration (at least 50% inhibition)” value was 3e-06 g/mL. In the case of CC(C)(C)c1ccc(SN2C(=O)c3c(Cl)c(Cl)c(Cl)c(Cl)c3C2=O)cc1 [Example 43], the “Minimum effective inhibitory concentration (at least 50% inhibition)” value was 3e-06 g/mL. With O=C1c2ccccc2S(=O)(=O)N1Sc1ccccc1 [Example 60] the “Minimum effective inhibitory concentration (at least 50% inhibition)” value was 3e-06 g/mL. For CC(C)(C)c1ccc(SN2CCCC2=O)cc1 [Example 54], the “Minimum effective inhibitory concentration (at least 50% inhibition)” value was 10^-6 g/ml. In the case of O=C1c2ccccc2C(=O)N1Sc1ccccc1 [Example 29], the “Minimum effective inhibitory concentration (at least 50% inhibition)” value was 10^-6 g/ml. Work on c1ccc2c(c1)ncn2SC1CCCCC1 [Example 80, 1-cyclohexylthiobenzimidazole] yielded a Minimum effective inhibitory concentration (at least 50% inhibition) of 1e-05 g/mL. For O=c1oc2ccccc2c(=O)n1SC1CCCCC1 [Example 76], the “Minimum effective inhibitory concentration (at least 50% inhibition)” value was 3e-06 g/mL. In the case of O=C1c2ccccc2C(=O)N1SC1CCCCC1 [Example 32], the “Minimum effective inhibitory concentration (at least 50% inhibition)” value was 3e-06 g/mL. With O=C1CCCCCN1Sc1ccc(Cl)cc1 [Example 56] the “Minimum effective inhibitory concentration (at least 50% inhibition)” value was 3e-06 g/mL. For O=c1n(Sc2ccccc2)c(=O)n2c(=O)n(Sc3ccccc3)c(=O)n12 [Example 18], the “Minimum effective inhibitory concentration (at least 50% inhibition)” value was 3e-06 g/mL. With O=C1c2ccccc2S(=O)(=O)N1Sc1ccc(Cl)cc1 [Example 61] the “Minimum effective inhibitory concentration (at least 50% inhibition)” value was 10^-6 g/ml. For Cc1ccc(SN2C(=O)c3ccccc3C2=O)cc1 [Example 31], the “Minimum effective inhibitory concentration (at least 50% inhibition)” value was 3e-06 g/mL. In the case of CC1=NN(Sc2ccccc2)C(=O)C1 [Example 74], the “Minimum effective inhibitory concentration (at least 50% inhibition)” value was 10^-6 g/ml. For CC(C)(C)c1ccc(SN2C(=O)c3ccccc3C2=O)cc1 [Example 35], the “Minimum effective inhibitory concentration (at least 50% inhibition)” value was 3e-06 g/mL. With Clc1ccc(Sn2cccn2)cc1 [Example 75] the “Minimum effective inhibitory concentration (at least 50% inhibition)” value was 3e-06 g/mL. With O=C1c2ccc([N+](=O)[O-])cc2C(=O)N1Sc1ccccc1 [Example 39] the “Minimum effective inhibitory concentration (at least 50% inhibition)” value was 10^-6 g/ml. In the case of Nc1ncn(Sc2ccc(Cl)cc2)n1 [Example 3], the “Minimum effective inhibitory concentration (at least 50% inhibition)” value was 10^-6 g/ml. In the case of CC(C)(C)c1ccc(SN2CCCCCC2=O)cc1 [Example 57], the “Minimum effective inhibitory concentration (at least 50% inhibition)” value was 10^-5 g/ml. For O=C1CCCN1Sc1ccc(Cl)cc1 [Example 53], the “Minimum effective inhibitory concentration (at least 50% inhibition)” value was 10^-6 g/ml. For O=C1CCCCCN1Sc1ccccc1 [Example 55], the “Minimum effective inhibitory concentration (at least 50% inhibition)” value was 10^-6 g/ml. With O=C1C(=O)N(Sc2ccccc2)c2ccccc21 [Example 68] the “Minimum effective inhibitory concentration (at least 50% inhibition)” value was 3e-06 g/mL. In the case of O=C1c2ccccc2C(=O)N1Sc1ccc(Cl)cc1 [Example 30], the “Minimum effective inhibitory concentration (at least 50% inhibition)” value was 3e-06 g/mL. In the case of CC(C)(C)c1ccc(SN2C(=O)c3ccccc3S2(=O)=O)cc1 [Example 62], the “Minimum effective inhibitory concentration (at least 50% inhibition)” value was 3e-06 g/mL. CCC(C)Sn1cnc2ccccc21 (centres unmarked) [Example 84] showed a Minimum effective inhibitory concentration (at least 50% inhibition) of 1e-05 g/mL. With O=C1CCN(c2ccccc2)N1Sc1ccc(Cl)cc1 [Example 72] the “Minimum effective inhibitory concentration (at least 50% inhibition)” value was 10^-6 g/ml. In the case of Nc1ncn(Sc2ccccc2)n1 [Example 2], the “Minimum effective inhibitory concentration (at least 50% inhibition)” value was 10^-6 g/ml. With O=C1CCCN1Sc1ccccc1 [Example 52] the “Minimum effective inhibitory concentration (at least 50% inhibition)” value was 10^-6 g/ml.

Test system: leucocytes (migration)
Experiment: Inhibition of the migration of leucocytes, sponge soaked in active compound introduced under the dorsal skin of rats
Format: in vivo
Settings: Leucocyte, rat, local dose 10 mg/rat, read-out: Inhibition of the migration of leucocytes (control = 0%)
Source text: The sulphenamides used according to the present invention are also active in vivo. […] Table 2 which follows summarises the activities of some illustrative sulphenamides after local administration, by introduction of a piece of sponge soaked in the active compound under the dorsal skin of rats.
Molecule O=C1c2ccc([N+](=O)[O-])cc2C(=O)N1Sc1ccccc1 [Example 36] has an inhibition in vivo at 10 mg of 64%. O=C1c2cccc3cccc(c23)C(=O)N1Sc1ccccc1 [Example 47] showed an inhibition in vivo at 10 mg of 21%. O=C1C(=O)N(Sc2ccc(Cl)cc2)c2ccccc21 [Example 69] gave an inhibition in vivo at 10 mg of 20%. With O=C1c2ccccc2C(=O)N1Sc1ccccc1 [Example 29] the inhibition in vivo at 10 mg was 48%. With Cc1ccc(SN2C(=O)C(C)(C)OC2(C)C)cc1 [Example 16] the inhibition in vivo at 10 mg was 40%. For O=C1c2ccccc2C(=O)N1SC1CCCCC1 [Example 32], the inhibition in vivo at 10 mg was 38%. In the case of O=C1CCCCCN1Sc1ccc(Cl)cc1 [Example 56], the inhibition in vivo at 10 mg was 86%. In the case of Clc1ccc(SNc2nnc(N3CCOCC3)s2)cc1 [Example 5], the inhibition in vivo at 10 mg was 22%. O=c1c2cc3c(=O)n(Sc4ccccc4)c(=O)c3cc2c(=O)n1Sc1ccccc1 [Example 45] gave an inhibition in vivo at 10 mg of 40%. For O=c1n(Sc2ccccc2)c(=O)n2c(=O)n(Sc3ccccc3)c(=O)n12 [Example 18], the inhibition in vivo at 10 mg was 41%. Molecule Cc1ccc(SN2C(=O)c3ccccc3C2=O)cc1 [Example 31] has an inhibition in vivo at 10 mg of 43%. Molecule CC1=NN(Sc2ccccc2)C(=O)C1 [Example 74] has an inhibition in vivo at 10 mg of 52%. With O=C1CCCN1Sc1ccc(Cl)c(C(F)(F)F)c1 [Example 20] the inhibition in vivo at 10 mg was 64%. Work on CC1(C)OC(C)(C)N(Sc2ccc(Cl)cc2)C1=O [Example 15] yielded an inhibition in vivo at 10 mg of 47%. Molecule O=C1CCCN1Sc1cc(C(F)(F)F)ccc1Cl [Example 21] has an inhibition in vivo at 10 mg of 44%. With c1ccc(CNSc2nnnn2-c2ccccc2)cc1 [Example 10] the inhibition in vivo at 10 mg was 26%. c1ccc(-n2nnnc2SNc2nc[nH]n2)cc1 [Example 11] showed an inhibition in vivo at 10 mg of 22%. O=C1CCCCCCCCCCN1Sc1ccccc1 [Example 58] gave an inhibition in vivo at 10 mg of 78%. In the case of O=C1CCCCCN1Sc1ccccc1 [Example 55], the inhibition in vivo at 10 mg was 78%. Molecule Nc1ncn(Sc2ccccc2)n1 [Example 2] has an inhibition in vivo at 10 mg of 70%. O=C1c2ccc([N+](=O)[O-])cc2C(=O)N1Sc1ccc(Cl)cc1 [Example 38] showed an inhibition in vivo at 10 mg of 56%. For Cc1ccc(Sn2cnc(N)n2)cc1 [Example 4], the inhibition in vivo at 10 mg was 61%. Work on O=C1CCCN1Sc1ccccc1 [Example 52] yielded an inhibition in vivo at 10 mg of 76%. For COC(=O)c1ccc(SN2CCCC2=O)cc1 [Example 22], the inhibition in vivo at 10 mg was 64%.

Same assay, conditions: rat, local dose 10 mg/rat
In the case of O=C1c2ccc([N+](=O)[O-])cc2C(=O)N1Sc1ccc(Cl)cc1 [Example 40], the “Inhibition of the migration of leucocytes (control = 0%)” value was 41%.
